Consider 18 compounds from PMC10041525, “New Dual Inhibitors of Bacterial Topoisomerases with Broad-Spectrum Antibacterial Activity and In Vivo Efficacy against Vancomycin-Intermediate Staphylococcus aureus” (Journal of Medicinal Chemistry, 2023).

One experiment addresses T1, DNA gyrase from E. coli (Escherichia coli, UniProt P0AES6).
T1 construct: purchased Inspiralis
The experiment in a line: supercoiling HTS plate assay. The class given is biochemical. In a few lines: (§1)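 E. coli gyrase tested by supercoiling and topo IV by relaxation in high-throughput plate format. IC50 from seven inhibitor concentrations; mean of three independent measurements.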

The target of a further experiment is T2, topo IV from E. coli (Escherichia coli, UniProt P20083).
T2 construct: purchased Inspiralis
T2 sequence (P0AFI2 whole entry): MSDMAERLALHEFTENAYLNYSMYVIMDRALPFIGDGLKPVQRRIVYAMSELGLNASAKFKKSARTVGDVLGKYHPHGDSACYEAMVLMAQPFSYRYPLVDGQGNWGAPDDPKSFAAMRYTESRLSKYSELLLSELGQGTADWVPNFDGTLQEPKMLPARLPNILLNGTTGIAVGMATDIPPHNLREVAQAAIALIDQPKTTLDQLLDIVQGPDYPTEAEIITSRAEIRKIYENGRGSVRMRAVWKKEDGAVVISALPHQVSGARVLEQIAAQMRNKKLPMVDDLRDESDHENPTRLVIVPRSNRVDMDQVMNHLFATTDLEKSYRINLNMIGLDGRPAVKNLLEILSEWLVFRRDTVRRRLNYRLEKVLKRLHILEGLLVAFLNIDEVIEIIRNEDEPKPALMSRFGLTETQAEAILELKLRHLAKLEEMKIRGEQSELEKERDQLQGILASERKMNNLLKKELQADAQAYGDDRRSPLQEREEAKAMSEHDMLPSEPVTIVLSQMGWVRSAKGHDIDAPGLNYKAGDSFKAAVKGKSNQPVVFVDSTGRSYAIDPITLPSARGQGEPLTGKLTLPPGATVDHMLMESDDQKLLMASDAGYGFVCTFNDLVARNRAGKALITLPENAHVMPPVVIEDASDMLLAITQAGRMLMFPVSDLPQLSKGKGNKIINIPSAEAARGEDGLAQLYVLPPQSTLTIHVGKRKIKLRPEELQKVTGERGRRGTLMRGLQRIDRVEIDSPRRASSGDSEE
T2 sequence (P20083 whole entry): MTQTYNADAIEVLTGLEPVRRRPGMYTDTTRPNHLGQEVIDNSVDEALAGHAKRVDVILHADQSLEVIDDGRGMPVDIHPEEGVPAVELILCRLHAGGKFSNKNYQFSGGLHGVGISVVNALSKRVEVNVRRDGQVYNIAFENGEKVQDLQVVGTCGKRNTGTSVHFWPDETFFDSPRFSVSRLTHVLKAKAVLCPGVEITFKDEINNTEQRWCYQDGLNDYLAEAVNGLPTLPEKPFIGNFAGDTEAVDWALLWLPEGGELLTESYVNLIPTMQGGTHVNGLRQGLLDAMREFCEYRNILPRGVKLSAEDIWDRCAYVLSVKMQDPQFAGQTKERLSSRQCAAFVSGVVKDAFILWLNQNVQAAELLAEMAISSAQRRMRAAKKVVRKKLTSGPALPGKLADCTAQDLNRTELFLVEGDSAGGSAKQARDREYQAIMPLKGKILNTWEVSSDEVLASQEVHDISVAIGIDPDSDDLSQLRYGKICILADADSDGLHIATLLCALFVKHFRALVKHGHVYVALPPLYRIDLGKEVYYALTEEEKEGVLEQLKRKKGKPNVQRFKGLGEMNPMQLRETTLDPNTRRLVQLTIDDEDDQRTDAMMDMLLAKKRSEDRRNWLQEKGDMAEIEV
The experiment in a line: relaxation HTS plate assay. The class given is biochemical. In a few lines: as §1

Experiment [1] concerns Enterococcus faecalis ATCC 29212. The experiment in a line: MIC broth microdilution (CLSI). The experiment is classed as cell-based, E. faecalis. As to conditions: Enterococcus faecalis, ATCC29212.
Experiment [2] has as its system Enterobacter cloacae spp. cloacae ATCC 13047. The experiment is described as follows: MIC broth microdilution (CLSI). The class given is cell-based. As to conditions: Enterobacter cloacae, ATCC13047. In a few lines: (§2)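 Using standard CLSI methodology, triplicate wells seeded at 5 × 10^4 cells in 100 μL cation-adjusted MHBII are incubated 18 h at 37 °C. The MIC corresponds to the drug concentration inhibiting culture growth as judged by OD600.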
(Broth dilution looks for growth in wells or tubes with falling amounts of substance.)

Experiment [3] relates to S. aureus (VISA) ATCC 700699. The experiment is described as follows: MIC broth microdilution (CLSI). The class given is cell-based. As to conditions: Staphylococcus aureus. Summed up:
as §2

The test system of another experiment is E. coli ATCC 25922. The experiment is described as follows: IHMA QC MIC. The class given is cell-based.
Experiment [4] relates to 3 sensitive and 7 MDR A. baumannii clinical isolates. The experiment is described as follows: MIC, Hungarian clinical isolates and controls (384-well). The experiment is classed as cell-based. As to conditions: n=10.
Where [5] appears, read: Escherichia coli, ATCC25922, QC strain E. coli ATCC 25922, test date 2021-11-26; read-out: MIC.
[6] abbreviates: Escherichia coli, ATCC25922; read-out: MIC (QC, repeated tests).

Converted amounts (≈) assume the structure as drawn. “And” between values parts separate entries of the source, which are not always exact repeats. Identical values can stand only once. Like-named read-outs stand apart in the source and are kept apart here. Where only a bound is given, the exact number is not on record here.

Consider `Cc1[nH]c(C(=O)Nc2nc3c(N4CCOCC4C)cc(C(=O)O)cc3s2)c(Cl)c1Cl` (stereo not drawn) [7b, 2-(3,4-Dichloro-5-methyl-1H-pyrrole-2-carboxamido)-4-(3-methylmorpholino)benzo[d]thiazole-6-carboxylic Acid], for which the IC50 at DNA gyrase from E. coli (read-out: IC50) is < 10 nM; on topo IV from E. coli (read-out: IC50) it was 78 ± 4 nM. Further, the MIC in experiment [1] (read-out: MIC) is < 0.0312 µg/mL; in experiment [2] (read-out: MIC), 32 µg/mL; in experiment [3] (read-out: MIC), < 0.0312 µg/mL.
Consider `Cc1[nH]c(C(=O)Nc2nc3c(N4CCOC[C@H]4C)cc(C(=O)O)cc3s2)c(Cl)c1Cl` [7c, (R)-2-(3,4-Dichloro-5-methyl-1H-pyrrole-2-carboxamido)-4-(3-methylmorpholino)benzo[d]thiazole-6-carboxylic Acid], for which the 50% inhibitory concentration (IC50) on DNA gyrase from E. coli (IC50 [nM] E. coli DNA gyrase) was determined as 30 ± 9 nM; on DNA gyrase from E. coli (read-out: IC50), 17 ± 8 nM; on topo IV from E. coli (read-out: IC50), 60 ± 36 nM. Further, the MIC in experiment [1] (read-out: MIC) was < 0.0312 µg/mL; in experiment [2] (read-out: MIC) it was > 64 µg/mL; in experiment [3] (read-out: MIC) it was 0.0625 µg/mL.
For the compound `Cc1[nH]c(C(=O)Nc2nc3c(N4CCOC[C@@H]4C)cc(C(=O)O)cc3s2)c(Cl)c1Cl` [7d, (S)-2-(3,4-Dichloro-5-methyl-1H-pyrrole-2-carboxamido)-4-(3-methylmorpholino)benzo[d]thiazole-6-carboxylic Acid], the IC50 at DNA gyrase from E. coli (IC50) was 18 ± 7 nM; against DNA gyrase from E. coli (IC50 [nM] E. coli DNA gyrase) it was 23 nM; on topo IV from E. coli (read-out: IC50), 95 ± 4 nM. The MIC was < 0.0312 µg/mL in experiment [1] (read-out: MIC), > 64 µg/mL in experiment [2] (read-out: MIC) and 0.0625 µg/mL in experiment [3] (read-out: MIC).
In the case of `Cc1[nH]c(C(=O)Nc2nc3c(N4CCOC(C)C4)cc(C(=O)O)cc3s2)c(Cl)c1Cl` (stereo not drawn) [7e, 2-(3,4-Dichloro-5-methyl-1H-pyrrole-2-carboxamido)-4-(2-methylmorpholino)benzo[d]thiazole-6-carboxylic Acid], the IC50 is < 10 nM at DNA gyrase from E. coli (read-out: IC50) and 91 ± 3 nM at topo IV from E. coli (read-out: IC50). For the same compound, the results for the MIC in experiment [1] (read-out: MIC), in experiment [2] (read-out: MIC) and in experiment [3] (read-out: MIC) were < 0.0312 µg/mL, > 64 µg/mL and < 0.0312 µg/mL, respectively.
With `Cc1[nH]c(C(=O)Nc2nc3c(N4CC(C)OC(C)C4)cc(C(=O)O)cc3s2)c(Cl)c1Cl` (stereo not drawn) [7f, 2-(3,4-Dichloro-5-methyl-1H-pyrrole-2-carboxamido)-4-(2,6-dimethylmorpholino)benzo[d]thiazole-6-carboxylic Acid], the values for the IC50 on DNA gyrase from E. coli (read-out: IC50) and at topo IV from E. coli (read-out: IC50) were < 10 nM and 82 ± 29 nM, respectively. The MIC in experiment [1] (read-out: MIC) was < 0.0312 µg/mL; in experiment [2] (read-out: MIC), > 64 µg/mL; in experiment [3] (read-out: MIC) it was < 0.0312 µg/mL.
As for `Cc1[nH]c(C(=O)Nc2nc3c(N4C[C@H]5CC[C@@H](C4)O5)cc(C(=O)O)cc3s2)c(Cl)c1Cl` [7g, 4-((1R,5S)-8-Oxa-3-azabicyclo[3.2.1]octan-3-yl)-2-(3,4-dichloro-5-methyl-1H-pyrrole-2-carboxamido)benzo[d]thiazole-6-carboxylic Acid], the IC50 at DNA gyrase from E. coli (read-out: IC50) is < 10 nM; at topo IV from E. coli (read-out: IC50), 16 ± 8 nM. The values for the MIC in experiment [1] (read-out: MIC), in experiment [2] (read-out: MIC) and in experiment [3] (read-out: MIC) were < 0.0312 µg/mL, 16 µg/mL and < 0.0312 µg/mL, respectively.
Turning to `Cc1[nH]c(C(=O)Nc2nc3c(N4CCOC(C(F)(F)F)C4)cc(C(=O)O)cc3s2)c(Cl)c1Cl` (stereo not drawn) [7i, 2-(3,4-Dichloro-5-methyl-1H-pyrrole-2-carboxamido)-4-(2-(trifluoromethyl)morpholino)benzo[d]thiazole-6-carboxylic Acid], the IC50 on DNA gyrase from E. coli (read-out: IC50) is < 10 nM; against topo IV from E. coli (IC50), 63 ± 1 nM. For the same compound, the MIC was < 0.0312 µg/mL in experiment [1], > 64 µg/mL in experiment [2] and < 0.0312 µg/mL in experiment [3].
As for `COCC1CCCN1c1cc(C(=O)O)cc2sc(NC(=O)c3[nH]c(C)c(Cl)c3Cl)nc12` (stereo not drawn) [7n, 2-(3,4-Dichloro-5-methyl-1H-pyrrole-2-carboxamido)-4-(2-(methoxymethyl)pyrrolidin-1-yl)benzo[d]thiazole-6-carboxylic Acid], the IC50 against DNA gyrase from E. coli (IC50 [nM] E. coli DNA gyrase) came out at 14 ± 6 nM; on topo IV from E. coli (read-out: IC50) it was 210 ± 7 nM. The MIC in experiment [1] (read-out: MIC) is < 0.0312 µg/mL; in experiment [2] (read-out: MIC), > 64 µg/mL; in experiment [3] (read-out: MIC) it was 0.0625 µg/mL.
For `COC[C@@H]1CCCN1c1cc(C(=O)O)cc2sc(NC(=O)c3[nH]c(C)c(Cl)c3Cl)nc12` [7o, (S)-2-(3,4-Dichloro-5-methyl-1H-pyrrole-2-carboxamido)-4-(2-(methoxymethyl)pyrrolidin-1-yl)benzo[d]thiazole-6-carboxylic Acid], the IC50 turned out to be 25 nM against DNA gyrase from E. coli (IC50 [nM] E. coli DNA gyrase) and 280 ± 14 nM on topo IV from E. coli (read-out: IC50). Also, the results for the MIC in experiment [1] (read-out: MIC), in experiment [2] (read-out: MIC) and in experiment [3] (read-out: MIC) were < 0.0312 µg/mL, > 64 µg/mL and 0.0625 µg/mL, respectively.
On to `Cc1[nH]c(C(=O)Nc2nc3c(N4CCC(O)CC4)cc(C(=O)O)cc3s2)c(Cl)c1Cl` [7p, 2-(3,4-Dichloro-5-methyl-1H-pyrrole-2-carboxamido)-4-(4-hydroxypiperidin-1-yl)benzo[d]thiazole-6-carboxylic Acid], for which the IC50 against DNA gyrase from E. coli (IC50 [nM] E. coli DNA gyrase) is < 10 nM; at topo IV from E. coli (read-out: IC50), 140 ± 3 nM. Further, the MIC in experiment [1] (read-out: MIC) was < 0.0312 µg/mL; in experiment [2] (read-out: MIC) it was > 64 µg/mL; in experiment [3] (read-out: MIC) it was 0.5 µg/mL.
On to `Cc1[nH]c(C(=O)Nc2nc3c(N4CCOCC4)cc(C(=O)O)cc3s2)cc1Cl` [16a, 2-(4-Chloro-5-methyl-1H-pyrrole-2-carboxamido)-4-morpholinobenzo[d]thiazole-6-carboxylic Acid], for which the IC50 was 13 ± 5 nM at DNA gyrase from E. coli (IC50 [nM] E. coli DNA gyrase); < 100 nM and 38 nM at topo IV from E. coli (read-out: IC50). Also, the MIC in experiment [1] (read-out: MIC) was 1 µg/mL; in experiment [2] (read-out: MIC), > 64 µg/mL; in experiment [3] (read-out: MIC) it was 0.5 µg/mL.
For the compound `Cc1[nH]c(C(=O)Nc2nc3c(N4CCOCC4)cc(C(=O)O)cc3s2)cc1F` [16b, 2-(4-Fluoro-5-methyl-1H-pyrrole-2-carboxamido)-4-morpholinobenzo[d]thiazole-6-carboxylic Acid], the IC50 on DNA gyrase from E. coli (IC50 [nM] E. coli DNA gyrase) worked out at 31 ± 6 nM; on topo IV from E. coli (read-out: IC50), 120 nM. For the same compound, the MIC in experiment [1] (read-out: MIC) is 16 µg/mL; in experiment [3] (read-out: MIC), 8 µg/mL.
Turning to `CC1(C)S[C@@H]2[C@H](NC(=O)[C@H](N)c3ccccc3)C(=O)N2[C@H]1C(=O)O` [Ampicillin, ampicillin], the MIC in the experiment on E. coli ATCC 25922 (Escherichia coli, ATCC25922, QC strain E. coli ATCC 25922, test date 2021-11-11; read-out: MIC) stood at 8 µg/mL (≈ 22.9 µM); in the experiment on E. coli ATCC 25922 (setting [5]), 4 µg/mL (≈ 11.4 µM).
As for `CO/N=C(\C(=O)N[C@@H]1C(=O)N2C(C(=O)[O-])=C(C[N+]3(C)CCCC3)CS[C@H]12)c1csc(N)n1` [Cefepime, cefepime], the “Cumulative % at MIC” value in experiment [4] (MIC […] µg/mL) is recorded as 20%. Further, the MIC in the experiment on E. coli ATCC 25922 (setting [6]) is ≤ 0.25 µg/mL.
In the case of `C[C@@H](O)[C@H]1C(=O)N2C(C(=O)O)=C(SCCNC=N)C[C@H]12` [Imipenem, imipenem], the “Cumulative % at MIC” value in experiment [4] (MIC 0.5 µg/mL) worked out at 20%; in experiment [4] (MIC 1 µg/mL) it was 30%; in experiment [4] (MIC 64 µg/mL), 60%; in experiment [4] (MIC 128 µg/mL) it was 80%; in experiment [4] (MIC 256 µg/mL), 100%. Also, the figures for the MIC in the experiment with E. coli ATCC 25922 (setting [5]) and in the experiment on E. coli ATCC 25922 (setting [6]) were 0.12 µg/mL (≈ 0.401 µM) and ≤ 0.25 µg/mL, respectively.
Consider `C[C@H]1COc2c(N3CCN(C)CC3)c(F)cc3c(=O)c(C(=O)O)cn1c23.C[C@H]1COc2c(N3CCN(C)CC3)c(F)cc3c(=O)c(C(=O)O)cn1c23.O` [Levofloxacin, levofloxacin], for which, in experiment [4] (MIC 0.0625 µg/mL), the “Cumulative % at MIC” value is recorded as 30%. Besides, the MIC is 0.015 µg/mL in the experiment on E. coli ATCC 25922 (Escherichia coli, ATCC25922); ≤ 0.25 µg/mL in the experiment with E. coli ATCC 25922 (Escherichia coli, ATCC25922, read-out: MIC (QC, repeated tests)); 0.015 µg/mL against E. coli ATCC 25922 (QC strain E. coli ATCC 25922, test date 2021-11-26).
Take `CN(C)c1cc(NC(=O)CNC(C)(C)C)c(O)c2c1C[C@H]1C[C@H]3[C@H](N(C)C)C(O)=C(C(N)=O)C(=O)[C@@]3(O)C(O)=C1C2=O` [Tigecycline, tigecycline]: the MIC with E. coli ATCC 25922 (setting [6]) stood at 0.12 µg/mL (≈ 0.205 µM).
In the case of “piperacillin/tazobactam [Piperacillin Tazobactam]”, in the experiment on E. coli ATCC 25922, the “MIC (QC, repeated tests)” value came to 2 µg/mL.

By IC50 is commonly meant the concentration that inhibits the measured activity by half. In general, MIC refers to the lowest concentration that inhibits growth of the organism.
